{"source": "patent US12458673B2", "about": "“Use of specific phages for the treatment of nontuberculosis mycobacteria (NTM) infections” (priority 2019, dated 2025)", "tested_on": "M. abscessus clinical isolates", "test": "Antibiotic resistance profile of clinical isolates"}
{"substance": "Trimethoprim/Sulfa", "values": [{"measurement": "Antibiotic Susceptibility", "result": 1}]}
